In PubChem BioAssay (NCI):
Where “and” joins values, the source holds several entries; their conditions need not be identical. Equal entries are not always repeated.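 Step 1: Grow cells in 96-well plates. Step 2: Expose to compound for 48 hours at 5 concentrations. Step 3: Interpolate endpoints linearly; if unreached, use highest concentration. Abbreviation: GI50, concentration required for 50% inhibition of growth. At the TGI there is no net growth.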

What was measured:
Test in all cases: inhibition of tumour cell growth, NCI panel, 48 h
[1] = test system: A549 NSCLC
[2] = test system: MDA-MB-231 breast
[3] = test system: HCT-116 colon
[4] = test system: RPMI-8226 leukemia
[5] = test system: MDA-MB-435
[6] = test system: SW-620 colon
[7] = test system: SK-MEL-28 melanoma
[8] = test system: OVCAR-4 ovarian
[9] = test system: U251 CNS
[10] = test system: EKVX NSCLC

Compound	GI50 [1]	TGI [1]	GI50 [2]	TGI [2]	GI50 [3]	TGI [3]	GI50 [4]	TGI [4]	GI50 [5]	TGI [5]	GI50 [6]	TGI [6]	GI50 [7]	TGI [7]	GI50 [8]	TGI [8]	GI50 [9]	TGI [9]	GI50 [10]	TGI [10]
O=S(=O)(NC(=S)Nc1ccccc1)c1ccc(N2N=C3c4ccccc4CC3C2c2ccc(Cl)cc2)cc1 (stereo not given)	20.9 µM	51.7 µM	87.1 µM	> 100 µM	21.6 µM	55.2 µM	19.6 µM	66.7 µM	44.8 µM	> 100 µM	29.7 µM	75.7 µM	29.4 µM	77 µM	42.2 µM	> 100 µM	19.7 µM	39.9 µM	27.4 µM	60.5 µM
O=C(c1ccc(O)cc1)c1ccc(C(=O)c2ccc(O)cc2)cc1	> 100 µM	> 100 µM	46.9 µM	> 100 µM	> 100 µM	> 100 µM	5.21 µM	> 100 µM	> 100 µM	> 100 µM	> 100 µM	> 100 µM	> 100 µM	> 100 µM	> 100 µM	> 100 µM	16.9 µM	> 100 µM	8.33 µM	> 100 µM
C/C1=C\CC[C@@](C)(O)[C@H]2C[C@H](CC/C(C)=C/CC1)C1(CC1)C(=O)O2	17.4 µM	32.3 µM	17.5 µM	35.1 µM	18.1 µM	32.2 µM	14.2 µM	35.8 µM	25.4 µM	79.1 µM	21.8 µM	46.2 µM	45.3 µM	> 100 µM	63.4 µM	> 100 µM	17.5 µM	37.1 µM	37 µM	> 100 µM
CCN(CC)c1ccc(/C=C/C(=O)c2cccc(NS(C)(=O)=O)c2)cc1	> 100 µM	> 100 µM	9.7 µM	> 100 µM	3.99 µM	> 100 µM	2.34 µM	20.8 µM	3.29 µM	> 100 µM	3.27 µM	> 100 µM	43.5 µM	> 100 µM	6.27 µM	> 100 µM	10.9 µM	> 100 µM	5.46 µM	> 100 µM
Cc1c(N2C(=O)/C(=C\c3ccc(O)cc3)N=C2c2ccccc2)c(=O)n(-c2ccccc2)n1C	> 100 µM	> 100 µM	> 100 µM	> 100 µM	> 100 µM	> 100 µM	> 100 µM	> 100 µM	> 100 µM	> 100 µM	> 100 µM	> 100 µM	> 100 µM	> 100 µM	> 100 µM	> 100 µM	> 100 µM	> 100 µM	> 100 µM	> 100 µM
COc1ccc(S(=O)(=O)O)cc1NS(=O)(=O)c1ccc(C)cc1	–	> 100 µM	–	> 100 µM	–	> 100 µM	–	> 100 µM	–	> 100 µM	–	> 100 µM	–	> 100 µM	–	> 100 µM	–	> 100 µM	–	> 100 µM
CC1=C[C@H]2c3c(c(O)c(O)c4oc5cc(O)cc(O)c5c(=O)c34)[C@H](c3cc(O)c(O)c4oc5cc(O)cc(O)c5c(=O)c34)[C@H]2C(C)(C)C1	0.686 µM and 1.67 µM	6.17 µM and 24.9 µM	1.46 µM and 1.83 µM	4.01 µM and 5.62 µM	0.462 µM and 0.947 µM	1.87 µM and 2.22 µM	0.915 µM and 0.392 µM	4.57 µM and 2.04 µM	0.962 µM and 1.29 µM	2.67 µM and 3.12 µM	1.26 µM and 1.28 µM	4.69 µM and 3.5 µM	1.5 µM and 1.76 µM	3.44 µM and 4.28 µM	3.92 µM and 2.9 µM	23.2 µM and 16.6 µM	0.789 µM and 1.08 µM	3.26 µM and 17 µM	2.67 µM and 2.2 µM	13.7 µM and 8.53 µM
Cc1cc2nc3ccc(N=Nc4ccc(N(C)C)cc4)cc3n(-c3ccccc3)c-2cc1=N	0.00894 µM	0.264 µM	0.074 µM	0.466 µM	0.0177 µM	0.116 µM	0.00254 µM	0.02 µM	0.0402 µM	0.165 µM	0.0221 µM	0.12 µM	0.0573 µM	0.241 µM	0.0116 µM and 0.0415 µM	0.12 µM and 0.802 µM	0.0183 µM	0.114 µM	0.023 µM	0.212 µM
COc1cc(C/C=C/c2ccccc2)c(OC)cc1O	–	> 100 µM	–	52.9 µM	–	31.1 µM	–	30.5 µM	–	36.9 µM	–	43.3 µM	–	35.3 µM	–	51.3 µM	–	38.2 µM	–	33.3 µM
O=C(Cc1ccccc1)Nc1nnc(CCSCCc2nnc(NC(=O)Cc3ccccc3)s2)s1	0.541 µM	> 100 µM	6.51 µM	25.7 µM	59.8 µM	> 100 µM	5.67 µM	> 100 µM	58.2 µM	> 100 µM	> 100 µM	> 100 µM	13.2 µM	> 100 µM	3.96 µM	32.7 µM	4.1 µM	18.3 µM	> 100 µM	> 100 µM
O=C1CC(c2ccccc2)Cc2nc3ccc(Cl)cc3cc21 (stereo not given)	0.451 µM	> 100 µM	0.538 µM	> 100 µM	0.0472 µM	> 49.5 µM	2.78 µM	37.8 µM	0.0235 µM	0.0649 µM	0.323 µM	> 100 µM	1.05 µM	> 100 µM	7.26 µM	> 100 µM	0.644 µM	> 62.2 µM	0.732 µM	> 100 µM
Cc1cc(N(CCCNc2ccnc3cc(Cl)ccc23)Cc2cccs2)nc(Cl)n1	7.11 µM	23.1 µM	3.36 µM	17.3 µM	1.08 µM	12.8 µM	1.43 µM	9.71 µM	4 µM	15.8 µM	3.45 µM	18.9 µM	4.87 µM	19 µM	1.69 µM	14.6 µM	6.75 µM	22.2 µM	3.72 µM	27.2 µM
Cc1sc2nc(-c3ccccn3)c(/C=N/N=C(N)N)n2c1C	12.6 µM	45 µM	3.3 µM	6.94 µM	4.09 µM	9.74 µM	4.23 µM	12.1 µM	4.53 µM	10.1 µM	4.5 µM	13.5 µM	4 µM	9.13 µM	5.15 µM	13.3 µM	9.3 µM	21 µM	8.63 µM	19.8 µM
